Assay results: patent US20030224038A1, “Cross-linkable phosphonate-containing supramolecular complexes and their use for delivery of therapeutic and diagnostic agents” (priority 2002, published 2003)

Experiments:
[1] = TEM imaging of negatively stained dodeca-5,7-diynoyl phosphonic acid vesicles (size); type: physicochemical
Method: Twice the value of the CMC determined for n-dodecanephosphonic acid (2.94×10^−4 M)^4 was used to assure aggregate formation in these experiments due to the limited amount of the final product. All samples were prepared in the manner described by Schulz, supra, using solutions buffered to a pH of 5.5 with 5 mM MES.
Samples prepared in the above manner were imaged using TEM by negatively staining the samples with 1% uranyl acetate. FIG. 2 is a picture of unpolymerized vesicles of dodeca-5,7-diynoyl phosphonic acid within four days of their initial preparation. It appears from this micrograph that the aggregates are small and relatively spherical compared to the fully saturated aggregates of n-dodecanephosphonic acid prepared as described hereinbelow. The average size of these vesicles is roughly 50 nm in diameter with the sizes of individual aggregates ranging from 4 nm to over 400 nm. […] This behavior was only observed with freshly prepared aggregates prior to their exposure to light. One explanation for this behavior is that it represents an artifact of drying the sample in the presence of the metal stain used to visualize it.
FIG. 3 is a micrograph of the same sample after one week. It is noteworthy that the vesicles are still spherical though they now appear to be smaller and have a more irregular exterior surface. […] Moreover, there was no evidence of the rolled cylinders previously imaged in the fresh aggregate solutions.

[2] = Dissolution in buffered aqueous solution; type: physicochemical
[3] = TEM size of n-dodecanephosphonic acid aggregates, metal-free and metallated with iron salts; type: physicochemical; conditions: metal-free aggregates, 3×10^−4 molar in 5 mM MES
Method: (§1) An aggregate was prepared using n-dodecanephosphonic acid. Specifically, a 3×10^−4 molar (on average) solution of n-dodecanephosphonic acid was used, which was prepared by adding 17 mg dodecanephosphonic acid to 250 mL of a 5 mM solution of morpholinoethanesulfonic acid (MES) buffer solution. This solution was heated in a boiling water bath for 40-60 minutes. The solution was then cooled and allowed to sit undisturbed for 3 days (following Shulz' procedure (21)). This preparation was used to produce the desired micelles and the reported critical micelle concentration (CMC) was independently confirmed through measurement of the surface tension by means of a Wilhelmy Plate Balance (22). […] It has also been determined that these aggregates are stable over the pH range of 4-6, with minimal structural changes.
The choice of biologically compatible metal ion used to bind to the micelle exterior directly influences the size and the shape of the resulting aggregates. Iron (III) salts are preferred because they are relatively inexpensive, readily available in several simple forms and known to be biologically compatible. However, other metal ions may be used if desired, including, without limitation, Zr (IV), Mg(II), Ca(II), Co(II) and Zn(II) salts. […]

[4] = pH stability of n-dodecanephosphonic acid aggregates; type: physicochemical; conditions: minimal structural changes
Method: as §1

[5] = reported value, independently confirmed by surface tension measurement; cited from earlier work

Q: With `CCCCC#CC#CCCCC(=O)P(=O)(O)O` [dodeca-5,7-diynoyl phosphonic acid, Dodeca-5,7-diynoyl phosphonic acid] as the compound, how does the “average size of aggregates (diameter)” value ([1]; same sample after one week) read?
A: The value was roughly 50 nm.

Q: What about the “largest vesicles present in the sample” value ([1]; same sample after one week) of the same compound?
A: The value was no more than 100 nm.

Q: And the “average size of vesicles (diameter)” value ([1]; unpolymerized vesicles, within four days of preparation, pH 5.5, 5 mM MES)?
A: The value was “roughly 50 nm”.

Q: And the “solubility in buffered aqueous solutions” value [2]?
A: The value was “readily dissolves in buffered aqueous solutions to form vesicles”.

Q: Which results are given for `CCCCCCCCCCCCP(=O)(O)O` [n-dodecanephosphonic acid]?
A: average diameter of aggregates [3]: 20-120 nm; pH range over which aggregates are stable [4]: 4-6; critical micelle concentration (CMC) [5]: 294 µM
